According to patent publication US11560373B2, “Compounds and their use as PDE4 activators” (Mironid Limited, priority 2018, dated 2023):

Key:
[1] = molecular target: T1, PDE4B1 (Homo sapiens, UniProt Q07343); assay: PDE assay, [3H]cAMP hydrolysis by HEK-PDE4B1 cell lysate cytosol fraction; type: biochemical; details: mean % increase in counts over basal activity
T1 construct: stably expressed the full-length human PDE4D5, PDE4B1 and PDE4A4 long isoforms; made in house

[2] = molecular target: T2, PDE4D5 (Homo sapiens, UniProt Q08499); assay: PDE assay, [3H]cAMP hydrolysis by HEK-PDE4D5 cell lysate cytosol fraction; type: biochemical; details: 30 μM; mean % increase in counts over basal activity
T2 construct: stably expressed the full-length human PDE4D5, PDE4B1 and PDE4A4 long isoforms; made in house
T2 sequence (Q08499 1-745 isoform Q08499-6): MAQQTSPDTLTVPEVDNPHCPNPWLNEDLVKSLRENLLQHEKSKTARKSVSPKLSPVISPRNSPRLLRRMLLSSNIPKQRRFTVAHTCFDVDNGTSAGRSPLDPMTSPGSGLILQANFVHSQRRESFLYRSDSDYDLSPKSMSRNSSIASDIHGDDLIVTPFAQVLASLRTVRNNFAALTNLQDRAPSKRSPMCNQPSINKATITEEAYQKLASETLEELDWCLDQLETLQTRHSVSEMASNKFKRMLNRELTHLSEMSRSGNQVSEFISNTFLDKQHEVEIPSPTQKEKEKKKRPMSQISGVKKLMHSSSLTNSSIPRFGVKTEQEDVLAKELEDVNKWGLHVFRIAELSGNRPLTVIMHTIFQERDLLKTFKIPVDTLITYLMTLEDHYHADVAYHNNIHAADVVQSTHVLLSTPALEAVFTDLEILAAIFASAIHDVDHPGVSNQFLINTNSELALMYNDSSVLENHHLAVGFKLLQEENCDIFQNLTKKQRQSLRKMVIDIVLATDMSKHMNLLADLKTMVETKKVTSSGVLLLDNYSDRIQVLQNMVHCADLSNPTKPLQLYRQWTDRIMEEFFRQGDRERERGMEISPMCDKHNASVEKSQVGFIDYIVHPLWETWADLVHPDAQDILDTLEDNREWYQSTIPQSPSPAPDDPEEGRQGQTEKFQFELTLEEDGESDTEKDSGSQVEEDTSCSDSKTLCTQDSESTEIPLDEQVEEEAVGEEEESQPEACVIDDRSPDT
Protocol: (§1) HEK 293 cells were transfected with pDEST™ PDE4 expression vectors using Lipofectamine LTX/Plus reagent (Invitrogen) as outlined by the manufacturer and clonal isolates expanded to obtain cell lines that stably expressed the full-length human PDE4D5, PDE4B1 and PDE4A4 long isoforms and the full length human PDE4B2 short isoform. These were called the HEK-PDE4D5, HEK-PDE4B1, HEK-PDE4A4 and HEK-PDE4B2 cell lines, respectively.
(§2) HEK-PDE4D5 cells were seeded out in 100 mm plates and incubated at 37° C. in an atmosphere of 5% CO2, 95% air. Cell lysates were prepared using KHEM buffer [50 mM KCl, 10 mM EGTA, 50 mM HEPES (pH 7.2), 1.92 mM MgCl2].
(§3) To prepare the cell lysates, the 100 mm plates containing the cells were placed on ice and washed with ice-cold PBS (phosphate buffered saline, pH 7.4). KHEM buffer (500 μl) was added to the cells. Cells were then scraped off the plate and triturated using a needle (BD Microlance™ 0.8, 40 mm). The lysed cells were then centrifuged at 2000 rpm for 10 minutes to remove cell debris and the supernatant (cell lysate containing recombinant PDE4D5) was transferred to a fresh tube and kept on ice.
(§4) The cell lysate containing recombinant PDE4D5 was transferred into a centrifuge tube and placed into an ultracentrifuge (BECKMAN COULTER) and spun at high speed (100,000 g) for 30 minutes at 4° C. The cytosol fraction was then collected and its protein amount determined using a BCA protein assay.
(§5) PDE assays were performed in thin walled V-bottomed 96-well plates. The assays were performed at a final concentration of 10 mM Tris/5 mM MgCl2 plus PDE4D5 cell lysate cytosol fraction, containing over-expressed PDE4D5, with and without test compound. The lysate/compound mix were incubated together for 15 min at room temperature on an orbital shaker prior to addition of [^3H] cAMP (final concentration 1 μM [^3H] cAMP; Perkin Elmer) to a final volume of 50 μl per reaction. The reactions were then incubated for 10 minutes at 30° C., terminated by heating for 2 min at 95° C. and allowed to cool. Snake venom (12.5 μl of 1 mg/ml; Crotalus atrox, Sigma) was then added and the plates were agitated and incubated for a further 15 minutes at 30° C. Dowex ion exchange resin (Sigma, chloride form, 200-400 mesh; 200 μl; prepared as a 1:1 Dowex: water stock, thoroughly re-suspended and diluted 2:1 with ethanol) was then added to each well and the plates incubated for 15 min at room temperature on an orbital shaker ensuring sufficient agitation for resin suspension (550 RPM). The reaction mixture was then transferred to a 96 well filter plate (Millipore; […] pore size) and filtered into a receiving 96-well plate to remove the dowex suspension. 30 μL of the filtered solution was then transferred to the wells of an Opti-plate (Perkin Elmer) 96 well assay plate and 120 μl of Microscint 40 scintillation fluid was added. The plate was then placed on an orbital shaker for 10 min at high speed (900 RPM) to mix the sample with scintillation fluid prior to quantitation using a plate based scintillation counter (Top-Count).
(§6) The % increase in counts in the presence of test compound at a particular concentration indicates the % increase in enzyme activity at that concentration.

[3] = molecular target: T3, PDE4B2 (Homo sapiens, UniProt Q07343); assay: PDE assay, [3H]cAMP hydrolysis by HEK-PDE4B2 cell lysate cytosol fraction (short form); type: biochemical; details: mean % increase in counts over basal activity
T3 construct: the full length human PDE4B2 short isoform; made in house
T3 sequence (Q07343 1-564 isoform Q07343-2): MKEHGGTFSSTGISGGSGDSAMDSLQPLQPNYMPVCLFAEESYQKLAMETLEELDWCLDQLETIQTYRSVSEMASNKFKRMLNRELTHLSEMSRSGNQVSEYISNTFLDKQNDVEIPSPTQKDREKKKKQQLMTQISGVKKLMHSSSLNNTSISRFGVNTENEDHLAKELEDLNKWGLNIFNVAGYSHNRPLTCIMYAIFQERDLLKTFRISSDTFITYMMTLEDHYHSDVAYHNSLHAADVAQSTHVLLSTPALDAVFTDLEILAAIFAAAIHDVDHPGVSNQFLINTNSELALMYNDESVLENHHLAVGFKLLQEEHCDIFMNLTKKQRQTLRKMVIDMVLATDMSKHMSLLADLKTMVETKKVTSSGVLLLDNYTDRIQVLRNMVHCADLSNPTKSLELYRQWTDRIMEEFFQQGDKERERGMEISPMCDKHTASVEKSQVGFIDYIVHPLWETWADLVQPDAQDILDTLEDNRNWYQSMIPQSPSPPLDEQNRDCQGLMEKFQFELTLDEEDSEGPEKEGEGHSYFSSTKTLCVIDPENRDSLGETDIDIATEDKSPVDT
Protocol: as §1, §2, §3, §4, §5, §6

[4] = system: MDCK cells; assay: Reduction of intracellular cAMP levels in forskolin stimulated MDCK cells; type: cell-based, canine; details: compound 40 min prior to forskolin (1 μM) for 20 min
Protocol: MDCK cells were seeded at 100,000 cells per well, and left to adhere overnight. The cells were then treated with the test compound for 40 minutes, prior to stimulation with forskolin (1 μM, Sigma) for 20 minutes. Media was aspirated, and hydrochloric acid (0.1 M) was added to lyse the cells. The cAMP assay (Enzo Life Sciences) was performed according to the manufacturer's instructions.

[5] = system: MDCK cells; assay: Inhibition of in vitro cyst formation in 3D culture of MDCK cells; type: cell-based, canine; details: 300 nM prostaglandin E2, 10 days; % Cyst Volume compared to vehicle
Source text: In this study, the well-established three-dimensional (3D) MDCK cell model is used to investigate the effects of PDE4 long form activators on the formation of kidney cysts and evaluate their potential in the treatment of polycystic kidney diseases. 3D cysts are generated based on the method of Mao et al. (Mao, Z., Streets, A. J., Ong, A. C. M. Am. J. Physiol. Renal Physiol. 300(6): F1375-F1384, 2011), with some modifications.
Type 1 collagen (Invitrogen) is first prepared on ice by neutralising an acidic stock solution (3 mg/ml) with 17 mM NaOH and diluting it to 1 mg/ml with DMEM, supplemented with 2% (v/v) FBS, 2 mM L-glutamine, 1,000 U penicillin and 1,000 μg streptomycin (DMEM-2% FBS). […]
Phase-contrast images are obtained on the Motic microscope (×4 magnification). 8 images are taken per condition and the cyst diameter measured (up to 150 cyst measurements per well). Cyst spheroid volume is calculated using the formula 4/3πr^3 where r is the radius of the spheroid. A mean cyst volume is then calculated per well. The mean cyst volume and standard deviation between the duplicate wells is then calculated and expressed as a % Cyst Volume compared to the vehicle only (DMSO+300 nM PGE2) control wells. […]

[6] = molecular target: T4, PDE4A4 (Homo sapiens, UniProt P27815); assay: PDE assay, [3H]cAMP hydrolysis by HEK-PDE4A4 cell lysate cytosol fraction; type: biochemical; details: mean % increase in counts over basal activity
T4 construct: stably expressed the full-length human PDE4D5, PDE4B1 and PDE4A4 long isoforms; made in house
T4 sequence (P27815 whole entry, canonical isoform): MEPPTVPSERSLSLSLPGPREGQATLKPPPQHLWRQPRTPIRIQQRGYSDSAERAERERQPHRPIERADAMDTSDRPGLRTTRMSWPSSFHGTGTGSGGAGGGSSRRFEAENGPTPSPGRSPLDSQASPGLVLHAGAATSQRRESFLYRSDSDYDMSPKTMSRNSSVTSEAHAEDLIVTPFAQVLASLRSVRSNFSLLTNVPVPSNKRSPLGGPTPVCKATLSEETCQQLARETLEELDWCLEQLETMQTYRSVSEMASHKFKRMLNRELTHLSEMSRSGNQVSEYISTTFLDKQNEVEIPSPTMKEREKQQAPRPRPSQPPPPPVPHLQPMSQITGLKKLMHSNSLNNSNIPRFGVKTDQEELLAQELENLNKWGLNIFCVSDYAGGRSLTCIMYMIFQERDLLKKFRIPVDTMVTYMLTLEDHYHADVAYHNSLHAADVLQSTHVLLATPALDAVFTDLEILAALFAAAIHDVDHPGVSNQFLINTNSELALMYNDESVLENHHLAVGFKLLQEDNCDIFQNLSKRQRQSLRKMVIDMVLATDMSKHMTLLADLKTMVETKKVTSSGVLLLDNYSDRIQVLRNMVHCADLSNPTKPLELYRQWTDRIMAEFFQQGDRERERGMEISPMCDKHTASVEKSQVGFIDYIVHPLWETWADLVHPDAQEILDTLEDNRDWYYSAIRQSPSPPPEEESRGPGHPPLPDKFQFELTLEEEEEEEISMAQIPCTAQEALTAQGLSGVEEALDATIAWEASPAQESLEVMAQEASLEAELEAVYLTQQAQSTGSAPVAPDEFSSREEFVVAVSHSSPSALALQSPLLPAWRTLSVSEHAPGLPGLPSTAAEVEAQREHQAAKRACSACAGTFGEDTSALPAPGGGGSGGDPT

T1 sequence (Q07343 whole entry, canonical isoform): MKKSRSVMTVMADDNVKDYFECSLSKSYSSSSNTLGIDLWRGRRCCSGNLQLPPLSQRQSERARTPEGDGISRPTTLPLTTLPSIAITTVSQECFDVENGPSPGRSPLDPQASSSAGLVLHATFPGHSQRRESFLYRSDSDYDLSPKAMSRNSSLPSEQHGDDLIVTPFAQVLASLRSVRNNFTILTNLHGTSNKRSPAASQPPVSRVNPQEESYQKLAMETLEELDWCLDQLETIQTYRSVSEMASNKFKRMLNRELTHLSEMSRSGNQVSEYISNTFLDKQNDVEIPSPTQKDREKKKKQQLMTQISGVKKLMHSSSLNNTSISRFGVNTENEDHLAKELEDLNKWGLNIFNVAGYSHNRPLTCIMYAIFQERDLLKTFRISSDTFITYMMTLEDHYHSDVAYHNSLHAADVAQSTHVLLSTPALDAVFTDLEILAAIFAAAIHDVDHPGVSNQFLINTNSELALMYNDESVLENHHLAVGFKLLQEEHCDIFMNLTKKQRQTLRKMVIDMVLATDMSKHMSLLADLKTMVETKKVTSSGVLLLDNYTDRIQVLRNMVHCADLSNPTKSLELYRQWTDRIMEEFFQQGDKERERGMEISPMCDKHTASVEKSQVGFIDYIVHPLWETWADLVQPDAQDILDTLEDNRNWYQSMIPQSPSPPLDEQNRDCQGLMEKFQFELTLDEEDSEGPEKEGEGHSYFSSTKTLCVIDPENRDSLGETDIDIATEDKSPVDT

CCn1nc(-c2ccc(Cl)c(F)c2)nc1CC(=O)NCc1cccc(F)c1 [Example 1, 2-[3-(4-Chloro-3-fluorophenyl)-1-ethyl-1H-1,2,4-triazol-5-yl]-N-(3-fluorobenzyl) acetamide]
% increase in PDE4B1 activity at 30 μM [1]: 79.1%

CCn1nc(-c2ccc(Cl)c(F)c2)nc1CC(=O)NCc1cccc(OC)c1 [Example 2, 2-[3-(4-Chloro-3-fluorophenyl)-1-ethyl-1H-1,2,4-triazol-5-yl]-N-(3-methoxybenzyl) acetamide]
% increase in PDE4B1 activity at 30 μM [1]: 99.4%

CCn1nc(-c2ccc(Cl)c(F)c2)nc1CC(=O)NCc1cc(C)nc(C)c1 [Example 3, 2-[3-(4-Chloro-3-fluorophenyl)-1-ethyl-1H-1,2,4-triazol-5-yl]-N-((2,6-dimethylpyridin-4-yl)methyl)acetamide]
activation at 30 µM [2]: 73.2% | % increase in PDE4B2 activity at 30 μM [3]: −10.9% | intracellular cAMP levels in MDCK cells (FIG. 2) [4]: reduction in intracellular cAMP levels | cyst formation in 3D culture of MDCK cells (FIG. 3) [5]: inhibition of cyst formation

COCCn1nc(-c2ccc(Cl)c(F)c2)nc1CC(=O)NCc1cc(Cl)cc(Cl)c1 [Example 22, 2-[3-(4-Chloro-3-fluorophenyl)-1-(2-methoxyethyl)-1H-1,2,4-triazol-5-yl]-N-[(3,5-dichlorophenyl)methyl]acetamide]
activation at 30 µM [2]: 99.9% | % increase in PDE4A4 activity at 30 μM [6]: 92.5% | % increase in PDE4B2 activity at 30 μM [3]: −2.9%

CCn1nc(-c2ccc(Cl)c(OC(C)C)c2)nc1CC(=O)NCc1cc(Cl)cc(Cl)c1 [Example 34, 2-[3-(4-Chloro-3-isopropyloxyphenyl)-1-ethyl-1H-1,2,4-triazol-5-yl]-N-[(3,5-dichlorophenyl)methyl]acetamide]
activation at 30 µM [2]: 108% | % increase in PDE4A4 activity at 30 μM [6]: 75.5% | % increase in PDE4B2 activity at 30 μM [3]: −4.4%

CCn1nc(-c2ccc(Cl)c(OC(C)C)c2)nc1CC(=O)N[C@H]1CCOc2ccc(Cl)cc21 [Example 40, N-[(4S)-6-Chloro-3,4-dihydro-2H-1-benzopyran-4-yl]-2-[3-(4-chloro-3-isopropyloxyphenyl)-1-ethyl-1H-1,2,4-triazol-5-yl]acetamide]
activation at 30 µM [2]: 48.5% | % increase in PDE4B2 activity at 30 μM [3]: 1.6%
